Experimental data reported in US8785614B2, “Aberrantly methylated genes in pancreatic cancer” (The Johns Hopkins University, priority 2003, dated 2014).
Where two headings read alike, the source gives them in different places.

Tested on: nonneoplastic ductal cell line HPDE
Experimental: Total RNA was isolated from cultured cells using TRIZOL reagent (invitrogen, Carlsbad, Calif.) and purified using RNeasy Mini Kit (Qiagen, Valencia, Calif.). First- and second-stranded cDNA was synthesized from 10 μg of total RNA using 17-dT) primer (Genset Corp., La Jolla, Calif.) and Superscript Choice system (Invitrogen). Labeled cRNA was synthesized from the purified cDNA by in vitro transcription reaction using the BioArray High Yield RNA Transcript Labeling Kit (Enzo Diagnostics, Inc., Farmingdale, N.Y.) at 37° C. for 6 h. The cRNA was fragmented at 94° C. for 35 min. in a fragmentation buffer [40 mM Tris-acetate @ pH 8.1, 100 mM potassium acestate, and 30 mM magnesium acetate]. The fragmented cRNA was then hybridized to the Human Genome U133A chips (Affymetrix, Santa Clara, Calif.) with 18462 unique gene/EST transcripts at 45° C. for 16 h. The washing and staining procedure was performed in the Affymetrix Fluidics Station according to the manufacturer's instructions. The probes were then scanned using a laser scanner, and signal intensity for each transcript (background-subtracted and adjusted for noise) was calculated using Microarray Suite Software 5.0 (Affymetrix).
Fold change analysis of signal intensities obtained from oligonucleotide microarrays between the two treatment groups was performed using Data Mining software (Afrymetrix).

With `Nc1ncn([C@H]2C[C@H](O)[C@@H](CO)O2)c(=O)n1` [5Aza-dC, 5 aza 2′ deoxycytidine] the “Fold-change after 5Aza-dC treatment” value (ANGPT2, HPDE) was −0.4 fold, the “Fold-change after 5Aza-dC treatment” value (BARD1, HPDE) was 2.23 fold and the “Fold-change after 5Aza-dC treatment” value (BNIP3, HPDE) was 1.23 fold. The “Fold-change after 5Aza-dC treatment” value (BST2, HPDE) was −1.06 fold, the “Fold-change after 5Aza-dC treatment” value (CACNA1G, HPDE) was 0.39 fold and the “Fold-change after 5Aza-dC treatment” value (CCNE2, HPDE) was 1.5 fold. The “Fold-change after 5Aza-dC treatment” value (CDH3, HPDE) was −1.08 fold, the “Fold-change after 5Aza-dC treatment” value (CDKN1A (p21), HPDE) was 1.33 fold and the “Fold-change after 5Aza-dC treatment” value (CDKN1C, HPDE) was 1.07 fold. For the same compound, the “Fold-change after 5Aza-dC treatment” value (CLDN5, HPDE) was 2.45 fold, the “Fold-change after 5Aza-dC treatment” value (CSF1, HPDE) was −1.03 fold and the “Fold-change after 5Aza-dC treatment” value (DR3, HPDE) was 1.01 fold. The “Fold-change after 5Aza-dC treatment” value (FOXE1, HPDE) was −1.1 fold, the “Fold-change after 5Aza-dC treatment” value (GAGE1, HPDE) was −0.55 fold and the “Fold-change after 5Aza-dC treatment” value (GAGE3, HPDE) was 1.33 fold. The “Fold-change after 5Aza-dC treatment” value (GAGE4, HPDE) was 3.33 fold, the “Fold-change after 5Aza-dC treatment” value (GAGE6, HPDE) was 2.41 fold and the “Fold-change after 5Aza-dC treatment” value (GAGE7, HPDE) was 3.36 fold. The “Fold-change after 5Aza-dC treatment” value (HOXA1, HPDE) was −1.23 fold, the “transcripts induced, share of transcripts analyzed” value (HPDE) was 0.5% and the “transcripts whose expression was induced after drug treatment” value (HPDE) was 101 transcripts. The “Fold-change after 5Aza-dC treatment” value (IGF2, HPDE) was −0.34 fold, the “Fold-change after 5Aza-dC treatment” value (IL1R1, HPDE) was −1.81 fold and the “Fold-change after 5Aza-dC treatment” value (ISG20, HPDE) was 0.89 fold. The “Fold-change after 5Aza-dC treatment” value (JPH3, HPDE) was 2.14 fold, the “Fold-change after 5Aza-dC treatment” value (KLK10, HPDE) was 3.75 fold and the “Fold-change after 5Aza-dC treatment” value (LDOC1, HPDE) was −1.12 fold. For the same compound, the “Fold-change after 5Aza-dC treatment” value (LHX1, HPDE) was 1.01 fold, the “Fold-change after 5Aza-dC treatment” value (MAGE1, HPDE) was 1.7 fold and the “Fold-change after 5Aza-dC treatment” value (MATN1, HPDE) was −125 fold. For the same compound, the “Fold-change after 5Aza-dC treatment” value (NEFH, HPDE) was −1.08 fold, the “Fold-change after 5Aza-dC treatment” value (NPTX2, HPDE) was 2.42 fold and the “Fold-change after 5Aza-dC treatment” value (PAX6, HPDE) was 2.57 fold. For the same compound, the “Fold-change after 5Aza-dC treatment” value (PDYN, HPDE) was −1.04 fold, the “Fold-change after 5Aza-dC treatment” value (PLAT, HPDE) was 4.9 fold and the “Fold-change after 5Aza-dC treatment” value (PLEK2, HPDE) was 1.2 fold. For the same compound, the “Fold-change after 5Aza-dC treatment” value (SARP2, HPDE) was 1.11 fold, the “Fold-change after 5Aza-dC treatment” value (SMARCA1, HPDE) was 3.54 fold and the “Fold-change after 5Aza-dC treatment” value (ST14, HPDE) was −1.05 fold. The “Fold-change after 5Aza-dC treatment” value (TIMP3, HPDE) was 1.32 fold, the “Fold-change after 5Aza-dC treatment” value (TJP2, HPDE) was 1.41 fold and the “Fold-change after 5Aza-dC treatment” value (TNF, HPDE) was −1.2 fold. For the same compound, the “Fold-change after 5Aza-dC treatment” value (UCHL1, HPDE) was 1.95 fold, the “Fold-change after 5Aza-dC treatment” value (WNT7A, HPDE) was −1.23 fold and the “Fold-change after 5Aza-dC treatment” value (XAGE-1, HPDE) was −0.43 fold. For the same compound, the “Fold-change after 5Aza-dC treatment” value (granulocytemacrophage colony-stimulating factor (M11734), HPDE) was −0.94 fold, the “Fold-change after 5Aza-dC treatment” value (interferon, alpha-inducible protein (NM_022873), HPDE) was 1.33 fold and the “Fold-change after 5Aza-dC treatment” value (p53-induced protein (PIGII), HPDE) was −1.58 fold. The “Fold-change after 5Aza-dC treatment” value (reprimo, HPDE) was 1.06 fold, the “Fold-change after 5Aza-dC treatment” value (stratifin (14-3-3 sigma), HPDE) was −1.46 fold and the “Fold-change after 5Aza-dC treatment” value (stromal antigen 3 (STAG5), HPDE) was 4.8 fold. For the same compound, the “Fold-change after 5Aza-dC treatment” value (testin, HPDE) was 1.09 fold.
